Patent publication US7220425B2, “Method for therapy of liver tumors” (Federalnoe Gosudarstvennoe Unitarnoe Predpriyatie …, priority 2000, dated 2007)

What was measured:
Assay type in all cases: in vivo, rats
[1] = Distribution of Teraphtalum with the proposed regional method (branch of portal vein of target lobe with occlusion); details: for Content of Teraphtalum: proposed method, 0.3 mg (0.6 ml, 0.01% solution), healthy rats
Protocol: (§1) Practically speaking, the method is carried out in the following manner. A median laparotomy is conducted, afferent (a branch of the portal vein and hepatic artery) and efferent (a branch of the hepatic vein) vessels of the target lobe of the liver are isolated. They are taken on tourniquets. A puncture of the branch of the portal vein is made, the preparation is introduced therein, simultaneously stopping the flow of blood: the blood inflow—through branches of the portal vein (proximal to the place of puncture) and the hepatic artery, outflow—through a branch of the hepatic vein. Restoration of the blood flow is accomplished by removing clamps from the vessels 5–15 minutes after administration of the preparation.
(§2) The studies were carried out on mongrel rats weighing 150 g, obtained from the N. V. Blokhin ONTs breeder and contained in the vivarium of that center.
(§3) Teraphtalum in a dose of 60 or 300 μg per rat in the form of 0.6 ml of a 0.01 and 0.05% solution was administered into a branch of the portal vein of a target lobe of the liver.
Accumulation of the preparation in the target lobe (subjected to occlusion), in the intact lobe of the liver (not subjected to occlusion) and also in the blood plasma were studied 5, 35 and 240 minutes after administration of the preparation by the proposed method.

[2] = Distribution of Teraphtalum with the known regional administration (general trunk of portal vein); details: known regional method, 5 mg/kg
Protocol: as §2
Teraphtalum (TP) was administered once into the general trunk of the portal vein in a dose of 5 mg/kg (this was 1 mg of TP for a rat weighing 200 g). Accumulation of the preparation in the liver, lungs and its level in blood plasma were evaluated by the spectrophotometric method 5, 35 and 240 minutes after the administration.

[3] = Effect of length of occlusion of afferent and abducent vessels on accumulation of Teraphtalum; details: for Content of Teraphtalum: 35 min after administration
Protocol: as §1, §3
The results of a study of the effect of the length of the period of occlusion of the afferent and abducent vessels of the target lobe of the liver on the accumulation of TP therein are presented in Table 3.

O=C(O)c1cc2c(cc1C(=O)O)C1=Nc3c4cc(C(=O)O)c(C(=O)O)cc4c4[n]3[Co][n]3c(c5cc(C(=O)O)c(C(=O)O)cc5c3=NC3=NC(=N4)c4cc(C(=O)O)c(C(=O)O)cc43)=NC2=N1 [Teraphtalum, cobalt octacarboxy phthalocyanine]
Concentration of TP in target lobe of liver, proposed method versus known regional method ([1]; first minutes after administration, dose in proposed method 16.5 times less): 2 times higher
Content of Teraphtalum ([1]; intact lobe of liver, 5 min): 7 μg/g of untreated tissue
Content of Teraphtalum ([1]; intact lobe of liver, 35 min): 5 μg/g of untreated tissue
Content of Teraphtalum ([1]; intact lobe of liver, 240 min): 9 μg/g of untreated tissue
Content of Teraphtalum ([1]; plasma, 5 min): 3 μg/g of untreated tissue
Content of Teraphtalum ([1]; target lobe of liver, 5 min): 30 μg/g of untreated tissue
Content of Teraphtalum ([1]; target lobe of liver, 35 min): 33 μg/g of untreated tissue
Content of Teraphtalum ([1]; target lobe of liver, 240 min): 48 μg/g of untreated tissue
Content of Teraphtalum ([2]; liver, 5 min after administration): 15 μg/g of untreated tissue
Content of Teraphtalum ([2]; liver, 35 min after administration): 60 μg/g of untreated tissue
Content of Teraphtalum ([2]; liver, 240 min after administration): 51 μg/g of untreated tissue
Content of Teraphtalum ([2]; lungs, 5 min after administration): 46 μg/g of untreated tissue
Content of Teraphtalum ([2]; lungs, 35 min after administration): 28 μg/g of untreated tissue
Content of Teraphtalum ([2]; lungs, 240 min after administration): 57 μg/g of untreated tissue
Content of Teraphtalum ([2]; plasma, 5 min after administration): 92.4 μg/g of untreated tissue
Content of Teraphtalum ([2]; plasma, 35 min after administration): 39.6 μg/g of untreated tissue
Content of Teraphtalum ([2]; plasma, 240 min after administration): 14.4 μg/g of untreated tissue
Content of Teraphtalum ([3]; blood plasma, control = selective administration without occlusion): 6 µg/g
Content of Teraphtalum ([3]; blood plasma, occlusion 5 min, 0.3 mg (0.6 ml of 0.01% solution), proposed method): 5 µg/g
Content of Teraphtalum ([3]; blood plasma, occlusion 15 min, 0.3 mg (0.6 ml of 0.01% solution), proposed method): 7 µg/g
Content of TP ([3]; intact lobe of liver as worded in text, without occlusion (control), 30 minutes after administration): 20 µg/g
Content of Teraphtalum ([3]; intact lobe of liver, occlusion 5 min, 0.3 mg (0.6 ml of 0.01% solution), proposed method): 7 µg/g
Content of Teraphtalum ([3]; intact lobe of liver, occlusion 15 min, 0.3 mg (0.6 ml of 0.01% solution), proposed method): 6 µg/g
Content of Teraphtalum ([3]; intact lobe, control = selective administration without occlusion): 17 µg/g
Content of Teraphtalum ([3]; target lobe of liver, occlusion 5 min, 0.3 mg (0.6 ml of 0.01% solution), proposed method): 35 µg/g
Content of Teraphtalum ([3]; target lobe of liver, occlusion 15 min, 0.3 mg (0.6 ml of 0.01% solution), proposed method): 35 µg/g
Content of Teraphtalum ([3]; target lobe, control = selective administration without occlusion): 20 µg/g
Content of TP ([3]; that (target) lobe as worded in text, without occlusion (control), 30 minutes after administration): 17 µg/g
Level of TP in the plasma ([3]; without occlusion (control), 30 minutes after administration): 6 μg/g of untreated tissue
